This experiment has as its target T1, estradiol receptor (Bos taurus, UniProt P49884).
T1 construct: incubated in suspension with varying concentrations of [^3 H]estradiol and with the uterine supernatant; from tissue; host or cells: uterus (uterine supernatant)
T1 sequence (P49884 1-596): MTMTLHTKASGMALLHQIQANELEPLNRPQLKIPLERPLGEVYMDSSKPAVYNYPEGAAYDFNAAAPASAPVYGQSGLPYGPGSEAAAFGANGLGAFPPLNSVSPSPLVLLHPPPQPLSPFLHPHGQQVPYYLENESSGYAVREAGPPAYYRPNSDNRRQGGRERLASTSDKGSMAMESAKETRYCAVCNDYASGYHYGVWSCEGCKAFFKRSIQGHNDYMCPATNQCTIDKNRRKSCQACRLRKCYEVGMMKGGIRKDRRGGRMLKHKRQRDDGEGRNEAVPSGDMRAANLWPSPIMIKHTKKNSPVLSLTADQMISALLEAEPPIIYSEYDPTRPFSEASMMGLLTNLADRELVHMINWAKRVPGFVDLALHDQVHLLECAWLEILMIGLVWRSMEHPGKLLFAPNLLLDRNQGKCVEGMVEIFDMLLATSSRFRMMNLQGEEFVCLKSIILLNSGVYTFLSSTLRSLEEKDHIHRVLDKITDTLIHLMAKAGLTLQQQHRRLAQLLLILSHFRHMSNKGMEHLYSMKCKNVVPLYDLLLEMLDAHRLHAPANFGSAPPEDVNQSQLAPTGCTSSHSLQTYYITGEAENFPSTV
Briefly: Affinity of the estradiol receptor for agarose-estradiol derivatives (incubation with [3H]estradiol and uterine supernatant, reciprocal plots). The experiment is classed as binding. To be noted: free ligand, uterine supernatant, estimated, read-out: dissociation constant. On the procedure:
Experiments were performed to estimate the affinity of the estradiol receptor for the macromolecular agarose-estradiol derivatives to compare the relative affinities of the various derivatives. The adsorbents are incubated in suspension with varying concentrations of [^3 H]estradiol and with the uterine supernatant, and the data were plotted in reciprocal plots to estimate the comparative affinities toward the estradiol receptor.

Molecules are shown by their SMILES. pKd: −log10 of the molar value.

As to `C[C@]12CC[C@@H]3c4ccc(O)cc4CC[C@H]3[C@@H]1CC[C@@H]2OC(=O)CCC(=O)O` [17β-estradiol 17-hemisuccinate], the pKd was around 6.15.

Values taken from patent US4411832A, “Polysaccharide matrices comprising macromolecular spacer arms for use as adsorbents in affinity chromatography techniques” (priority 1981, dated 1983).
